According to patent US20230322846A9, “NEUROACTIVE STEROIDS AND THEIR METHODS OF USE” (SAGE THERAPEUTICS, INC., priority 2018, published 2023):

Legend:
[1] = target: human GABAA receptors composed of the α4β3δ subunits (Homo sapiens (Human), UniProt O14764+P28472+P48169); assay: α4β3δ SyncroPatch automated patch clamp assay; format: cell-based; conditions: for EC50: HEK cells, potentiation of submaximal GABA current, clamped at −120 mV; for α4β3δ EMAX: peak current after GABA+compound divided by peak current after GABA alone
Chain of human GABAA receptors composed of the α4β3δ subunits (P48169 36-554 limits assumed): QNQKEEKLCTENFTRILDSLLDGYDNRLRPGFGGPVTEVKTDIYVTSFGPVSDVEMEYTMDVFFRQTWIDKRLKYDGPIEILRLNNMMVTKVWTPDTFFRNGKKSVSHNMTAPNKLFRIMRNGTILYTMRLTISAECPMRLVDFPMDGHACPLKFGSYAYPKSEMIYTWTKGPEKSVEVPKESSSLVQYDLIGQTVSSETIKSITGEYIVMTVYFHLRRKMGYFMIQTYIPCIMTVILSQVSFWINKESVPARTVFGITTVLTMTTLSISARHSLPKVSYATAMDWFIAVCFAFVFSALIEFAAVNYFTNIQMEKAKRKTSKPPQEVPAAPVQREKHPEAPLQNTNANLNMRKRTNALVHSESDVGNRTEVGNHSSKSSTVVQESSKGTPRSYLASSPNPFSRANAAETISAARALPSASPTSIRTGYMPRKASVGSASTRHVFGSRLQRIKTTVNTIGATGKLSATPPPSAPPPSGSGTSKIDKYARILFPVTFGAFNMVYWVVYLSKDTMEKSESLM
Chain of human GABAA receptors composed of the α4β3δ subunits (P28472 26-473 limits assumed): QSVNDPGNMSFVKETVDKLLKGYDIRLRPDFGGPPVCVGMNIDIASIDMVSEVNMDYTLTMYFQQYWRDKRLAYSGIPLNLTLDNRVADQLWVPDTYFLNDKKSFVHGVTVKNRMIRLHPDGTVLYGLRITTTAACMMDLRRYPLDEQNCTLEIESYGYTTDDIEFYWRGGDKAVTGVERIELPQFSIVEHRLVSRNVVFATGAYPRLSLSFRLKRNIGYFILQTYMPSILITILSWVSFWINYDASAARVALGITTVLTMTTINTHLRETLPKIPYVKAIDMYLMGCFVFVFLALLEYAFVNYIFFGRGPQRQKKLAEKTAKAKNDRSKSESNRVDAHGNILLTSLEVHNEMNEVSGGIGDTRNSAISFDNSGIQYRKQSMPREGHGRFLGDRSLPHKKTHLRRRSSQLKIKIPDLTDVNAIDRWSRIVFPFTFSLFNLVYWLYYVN
Chain of human GABAA receptors composed of the α4β3δ subunits (O14764 17-452 limits assumed): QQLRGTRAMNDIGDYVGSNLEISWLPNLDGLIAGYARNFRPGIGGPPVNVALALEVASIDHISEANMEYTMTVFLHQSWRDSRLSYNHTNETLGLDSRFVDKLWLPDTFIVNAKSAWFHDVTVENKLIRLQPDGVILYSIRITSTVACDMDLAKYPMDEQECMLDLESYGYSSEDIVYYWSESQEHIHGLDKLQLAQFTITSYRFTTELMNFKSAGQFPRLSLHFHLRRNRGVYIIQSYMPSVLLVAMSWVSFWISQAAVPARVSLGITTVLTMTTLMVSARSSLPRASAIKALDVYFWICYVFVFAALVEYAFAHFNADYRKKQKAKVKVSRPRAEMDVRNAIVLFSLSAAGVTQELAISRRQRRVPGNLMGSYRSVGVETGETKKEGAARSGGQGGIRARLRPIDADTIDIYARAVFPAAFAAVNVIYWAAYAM
How it was run: (§1)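 Whole-cell recordings in HEK cells stably expressing each receptor, held at −120 mV, pH 7.4 extracellular/pH 7.2 KF-based intracellular solution. Submaximal GABA (3-5 μM or 10 μM) applied, then GABA plus compound at 0.029-30 μM (six concentrations, n=8-12 cells). Effect = peak current ratio GABA+compound/GABA alone; EC50 and Emax from concentration means.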

[2] = target: [35S]-TBPS binding, rat brain cortical membranes; assay: Steroid inhibition of [35S]-TBPS binding; conditions: 3 nM [35S]-TBPS, in the presence of 5 mM GABA
How it was run: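 Rat cortical P2 membranes incubated 90 min at room temperature with 3 nM [35S]-TBPS, […] and test compound (0.5% DMSO final) in NaCl/Na–K phosphate pH 7.4; nonspecific binding with […]. Filter-bound radioactivity counted; IC50 and Imax from nonlinear fits, mean ± SEM.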

[3] = target: human GABAA receptors composed of the α1β2γ2 subunits (Homo sapiens (Human), UniProt P14867+P18507+P47870); assay: α1β2γ2 SyncroPatch automated patch clamp assay; format: cell-based; conditions: for EC50: HEK cells, potentiation of submaximal GABA current, clamped at −120 mV; for α1β2γ2 EMAX: peak current after GABA+compound divided by peak current after GABA alone
Chain of human GABAA receptors composed of the α1β2γ2 subunits (P14867 28-456 limits assumed): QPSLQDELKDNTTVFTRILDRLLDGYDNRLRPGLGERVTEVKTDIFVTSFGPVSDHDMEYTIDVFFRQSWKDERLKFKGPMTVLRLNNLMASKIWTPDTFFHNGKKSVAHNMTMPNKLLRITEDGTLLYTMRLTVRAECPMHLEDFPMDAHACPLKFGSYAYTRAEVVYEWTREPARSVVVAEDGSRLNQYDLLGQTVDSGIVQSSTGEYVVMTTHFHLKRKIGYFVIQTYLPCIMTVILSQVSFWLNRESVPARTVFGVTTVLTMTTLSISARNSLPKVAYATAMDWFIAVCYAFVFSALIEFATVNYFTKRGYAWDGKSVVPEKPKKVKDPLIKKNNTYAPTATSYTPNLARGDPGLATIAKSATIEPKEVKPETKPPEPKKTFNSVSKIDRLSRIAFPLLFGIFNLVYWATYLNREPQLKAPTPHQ
Chain of human GABAA receptors composed of the α1β2γ2 subunits (P47870 25-512 limits assumed): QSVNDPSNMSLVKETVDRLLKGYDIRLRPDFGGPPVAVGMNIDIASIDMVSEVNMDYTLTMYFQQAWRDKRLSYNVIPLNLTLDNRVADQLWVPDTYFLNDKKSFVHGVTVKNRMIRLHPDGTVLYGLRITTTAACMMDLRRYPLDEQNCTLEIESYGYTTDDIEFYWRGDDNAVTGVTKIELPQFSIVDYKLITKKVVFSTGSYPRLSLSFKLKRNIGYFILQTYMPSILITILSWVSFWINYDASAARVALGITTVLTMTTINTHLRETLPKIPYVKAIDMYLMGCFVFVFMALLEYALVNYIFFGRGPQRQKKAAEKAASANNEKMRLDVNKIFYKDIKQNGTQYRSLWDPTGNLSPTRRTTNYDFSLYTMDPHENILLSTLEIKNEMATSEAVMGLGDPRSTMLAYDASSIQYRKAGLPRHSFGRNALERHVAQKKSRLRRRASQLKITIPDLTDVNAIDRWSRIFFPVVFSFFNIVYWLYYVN
Chain of human GABAA receptors composed of the α1β2γ2 subunits (P18507 40-475 limits assumed): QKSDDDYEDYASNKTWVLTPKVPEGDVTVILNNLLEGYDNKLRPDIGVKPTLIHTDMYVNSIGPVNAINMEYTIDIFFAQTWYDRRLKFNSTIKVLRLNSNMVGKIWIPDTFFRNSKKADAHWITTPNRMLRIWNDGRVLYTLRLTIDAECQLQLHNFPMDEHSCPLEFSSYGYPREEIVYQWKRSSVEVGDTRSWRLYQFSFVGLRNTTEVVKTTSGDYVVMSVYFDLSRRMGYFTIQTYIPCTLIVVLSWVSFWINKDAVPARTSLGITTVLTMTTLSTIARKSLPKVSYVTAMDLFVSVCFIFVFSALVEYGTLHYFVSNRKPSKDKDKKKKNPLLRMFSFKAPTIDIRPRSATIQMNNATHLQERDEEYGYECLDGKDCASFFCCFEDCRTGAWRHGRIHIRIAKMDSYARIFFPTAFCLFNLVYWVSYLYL
How it was run: as §1

SMILES	EC50 [1] [nM]	α4β3δ EMAX [1]	IC50 [2] [nM]	EC50 [3] [nM]	α1β2γ2 EMAX [3]
COC[C@@]1(O)CC[C@H]2[C@H](CC[C@@H]3[C@@H]2CC[C@]2(C)[C@@H]([C@H](C)Cc4ccc(C#N)nc4)CC[C@@H]32)C1 [Example 405, 5-((R)-2-((3R,5R,8R,9R,10S,13R,14S,17R)-3-hydroxy-3-(methoxymethyl)-13-methylhexadecahydro-1H-cyclopenta[a]phenanthren-17-yl)propyl)picolinonitrile]	< 200	B (B indicates an Emax response 30 to <45)	< 100	≥ 1000	C (C indicates an Emax response ≥10)
C[C@H](Cc1cncc(C#N)c1)[C@H]1CC[C@H]2[C@@H]3CC[C@@H]4C[C@](C)(O)CC[C@@H]4[C@H]3CC[C@]12C [Example 406, 5-((R)-2-((3R,5R,8R,9R,10S,13R,14S,17R)-3-hydroxy-3,13-dimethylhexadecahydro-1H-cyclopenta[a]phenanthren-17-yl)propyl)nicotinonitrile]	< 200	B (B indicates an Emax response 30 to <45)	< 100	< 200	A (A indicates an Emax response <8)
C[C@@H](Cc1cncc(C#N)c1)[C@H]1CC[C@H]2[C@@H]3CC[C@@H]4C[C@](C)(O)CC[C@@H]4[C@H]3CC[C@]12C [Example 407, 5-((S)-2-((3R,5R,8R,9R,10S,13R,14S,17R)-3-hydroxy-3,13-dimethylhexadecahydro-1H-cyclopenta[a]phenanthren-17-yl)propyl)nicotinonitrile]	≥ 1000	C (C indicates an Emax response ≥45)	< 100	< 200	C (C indicates an Emax response ≥10)
CCOC[C@@]1(O)CC[C@H]2[C@H](CC[C@@H]3[C@@H]2CC[C@]2(C)[C@@H]([C@@H](C)Cc4cccc(C#N)n4)CC[C@@H]32)C1 [Example 413]	< 200	B (B indicates an Emax response 30 to <45)	< 100	< 200	C (C indicates an Emax response ≥10)
Cc1cnc(C[C@H](C)[C@H]2CC[C@H]3[C@@H]4CC[C@@H]5C[C@](C)(O)CC[C@@H]5[C@H]4CC[C@]23C)s1 [Example 430]	< 200	A (A indicates an Emax response <30)	100 to 1000	200 to 1000	B (B indicates an Emax response 8 to <10)
C[C@H](Cc1nccc(C#N)n1)[C@H]1CC[C@H]2[C@@H]3CC[C@@H]4C[C@](C)(O)CC[C@@H]4[C@H]3CC[C@]12C [Example 436]	≥ 1000	B (B indicates an Emax response 30 to <45)	100 to 1000	200 to 1000	A (A indicates an Emax response <8)
Cc1cnc(C[C@@H](C)[C@H]2CC[C@H]3[C@@H]4CC[C@@H]5C[C@](C)(O)CC[C@@H]5[C@H]4CC[C@]23C)nc1 [Example 438]	≥ 1000	B (B indicates an Emax response 30 to <45)	100 to 1000	200 to 1000	A (A indicates an Emax response <8)
Cc1cnc(C[C@H](C)[C@H]2CC[C@H]3[C@@H]4CC[C@@H]5C[C@](C)(O)CC[C@@H]5[C@H]4CC[C@]23C)cn1 [Example 439]	< 200	C (C indicates an Emax response ≥45)	< 100	< 200	C (C indicates an Emax response ≥10)
C[C@@H](Cc1ccc(C(F)(F)F)nc1)[C@H]1CC[C@H]2[C@@H]3CC[C@@H]4C[C@](C)(O)CC[C@@H]4[C@H]3CC[C@]12C [Example 443]	< 200	B (B indicates an Emax response 30 to <45)	< 100	< 200	C (C indicates an Emax response ≥10)
C[C@@H](Cc1nc(C(F)(F)F)cs1)[C@H]1CC[C@H]2[C@@H]3CC[C@@H]4C[C@](C)(O)CC[C@]4(C)[C@H]3CC[C@]12C [Example 453]	< 200	A (A indicates an Emax response <30)	< 100	200 to 1000	A (A indicates an Emax response <8)
CCOC[C@@]1(O)CC[C@H]2[C@H](CC[C@@H]3[C@@H]2CC[C@]2(C)[C@@H]([C@H](CC)Cn4ccc(C#N)n4)CC[C@@H]32)C1 [Example 499, 1-((S)-2-((3R,5R,8R,9R,10S,13S,14S,17R)-3-(ethoxymethyl)-3-hydroxy-13-methylhexadecahydro-1H-cyclopenta[a]phenanthren-17-yl)butyl)-1H-pyrazole-3-carbonitrile]	< 200	A (A indicates an Emax response <30)	< 100	< 200	A (A indicates an Emax response <8)
